Measurements taken from the supplement of paper PMC7840683.
± gives the standard deviation of the averaged measurements.

System: HepaRG
Assay: LDH release cytotoxicity, % of total lysis control; higher = more cytotoxic
Conditions: 48 h
How it was run: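 The CytoTox-ONE kit was used to read LDH in 50 µL spent medium as resorufin fluorescence on a Tecan Safire, with 0.1% Triton X added to total lysis wells. Beforehand, single-lot HepaRG cells on collagen I-coated 96-well plates had been exposed in duplicate for 48 h to eight-point half-log series (top 100 µM) in serum-free induction medium containing 0.5% DMSO. Percent cytotoxicity was normalized against on-plate vehicle and total lysis controls and averaged over duplicates.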

Compound | LDH release cytotoxicity (0.03162 µM) [%] | LDH release cytotoxicity (0.1 µM) [%] | LDH release cytotoxicity (0.3162278 µM) [%] | LDH release cytotoxicity (1 µM) [%] | LDH release cytotoxicity (3.16228 µM) [%] | LDH release cytotoxicity (10 µM) [%] | LDH release cytotoxicity (31.6228 µM) [%] | LDH release cytotoxicity (100 µM) [%] | also measured
CCNc1nc(Cl)nc(NC(C)(C)C)n1 [Terbutylazine] | 0.3 ± 1.3 | -1.75 ± 0.07 | -0.304 ± 1.2 | -1.25 ± 0.2 | -0.494 ± 0.44 | -0.989 ± 0.83 | -0.271 ± 1.1 | -0.0173 ± 1.5 | –
Oc1ccccc1-c1ccccc1 [2-Phenylphenol] | – | – | – | – | – | – | – | – | LDH release cytotoxicity (0.0327296 µM): -1.34 ± 0.032%; LDH release cytotoxicity (0.1035 µM): -1.96 ± 0.059%; LDH release cytotoxicity (0.327296 µM): -0.0202 ± 0.57%; LDH release cytotoxicity (1.035 µM): -0.704 ± 0.57%; LDH release cytotoxicity (3.27296 µM): -1.21 ± 0.68%; LDH release cytotoxicity (10.35 µM): 0.0213 ± 0.73%; LDH release cytotoxicity (32.729574 µM): -0.237 ± 0.41%; LDH release cytotoxicity (103.5 µM): 0.858 ± 0.56%
C=CCc1ccc2c(c1)OCO2 [Safrole] | -1.32 ± 2.9 | -2.757 ± 0.0064 | -3.53 ± 1 | -4.07 ± 0.0064 | -3.36 ± 0.43 | -2.27 ± 1.1 | -1.93 ± 2.5 | 1.79 ± 3.3 | –
O=C(O)Cc1ccccc1Nc1c(Cl)cccc1Cl [Diclofenac sodium] | 0.371 ± 0.76 | -0.605 ± 0.41 | -1.36 ± 0.43 | -0.678 ± 0.21 | -0.378 ± 0.25 | -0.578 ± 0.3 | 1.19 ± 0.14 | 12 ± 1 | –
NS(=O)(=O)C(F)(F)C(F)(F)C(F)(F)C(F)(F)C(F)(F)C(F)(F)C(F)(F)C(F)(F)F [Perfluorooctanesulfonamide] | -1.99 ± 0.3 | -2.06 ± 0.39 | -2.69 ± 0.94 | -1.57 ± 1.4 | -1.2 ± 0.054 | -4.2 ± 0.27 | 41.1 ± 1.1 | 86.8 ± 13 | –
O=C(OCCOCCOC(=O)c1ccccc1)c1ccccc1 [Diethylene glycol dibenzoate] | -0.909 ± 1 | -1.337 ± 0.0031 | -0.774 ± 0.13 | -1.03 ± 1.1 | -1.1 ± 0.042 | -0.826 ± 0.27 | -1.09 ± 0.2 | 0.38 ± 0.34 | –
CC(=O)c1ccccc1 [Acetophenone] | -2.51 ± 1.2 | -2.44 ± 0.99 | -2.72 ± 0.4 | -2 ± 1.3 | -2.1 ± 0.76 | -1.71 ± 1 | -1.38 ± 0.1 | -0.356 ± 0.56 | –
Cc1ccccc1COC1CC2(C(C)C)CCC1(C)O2 (configuration not stated) [Cinmethylin] | -0.203 ± 0.059 | -1.15 ± 0.52 | -1.3 ± 0.27 | -1.23 ± 0.093 | -1.09 ± 0.76 | -0.853 ± 0.059 | -0.668 ± 0.63 | 1.99 ± 1.4 | –
CC(C)=CC1C(C(=O)OCN2C(=O)C3=C(CCCC3)C2=O)C1(C)C (configuration not stated) [Tetramethrin] | -1.77 ± 0.86 | -1.73 ± 1 | -2 ± 0.85 | -2.13 ± 0.4 | -1.65 ± 0.066 | -1.51 ± 0.38 | -0.61 ± 0.13 | 0.736 ± 0.64 | –
CC(COCC(C)OC(=O)c1ccccc1)OC(=O)c1ccccc1 (configuration not stated) [Di(propylene glycol) dibenzoate] | -0.851 ± 0.69 | -1.49 ± 0.45 | -1.08 ± 0.15 | -1.01 ± 0.013 | -1.58 ± 0.024 | -1.58 ± 0.33 | -1.03 ± 1.1 | 0.42 ± 1.6 | –
Cn1cnc([N+](=O)[O-])c1Sc1ncnc2nc[nH]c12 [Azathioprine] | – | – | – | – | – | – | – | – | LDH release cytotoxicity (0.0314647 µM): -0.881 ± 1.4%; LDH release cytotoxicity (0.0995 µM): -1.48 ± 0.6%; LDH release cytotoxicity (0.3146466 µM): -1.64 ± 0.77%; LDH release cytotoxicity (0.995 µM): -0.793 ± 1.6%; LDH release cytotoxicity (3.14647 µM): 1.06 ± 0.75%; LDH release cytotoxicity (9.95 µM): 4.17 ± 1.2%; LDH release cytotoxicity (31.4647 µM): 6.78 ± 0.16%; LDH release cytotoxicity (99.5 µM): 8.21 ± 1.2%
C1CNCCN1 [Piperazine] | -6.9 ± 0.6 | -7.27 ± 0.36 | -6.65 ± 1 | -7.16 ± 1.9 | -6.57 ± 0.29 | -6.04 ± 1.4 | -6.14 ± 0.77 | -6.01 ± 1.2 | –
COCc1nnc(-c2ccc[n+]([O-])c2)n1-c1c(Cl)c(Cl)cc2[nH]c(=O)c(=O)[nH]c12 | -1.68 ± 0.083 | -1.55 ± 0.35 | -2.04 ± 0.24 | -2.82 ± 1.1 | -2.03 ± 0.3 | -1.6 ± 0.17 | -1.69 ± 0.83 | -0.641 ± 0.26 | –
COCCO [2-Methoxyethanol] | -2.71 ± 0.16 | -2.42 ± 0.11 | -1.84 ± 0.67 | -2.08 | -2.13 ± 0.46 | -1.562 ± 0.005 | 0.278 ± 0.11 | 2.52 ± 0.4 | –
COC1C(OC(=O)NC(=O)CCl)CCC2(CO2)C1C1(C)OC1CC=C(C)C (configuration not stated) [o-(Chloroacetylcarbamoyl)fumagillol] | – | – | – | – | – | – | – | – | LDH release cytotoxicity (0.01012 µM): -1.03 ± 1.5%; LDH release cytotoxicity (0.032 µM): -2.16 ± 1.1%; LDH release cytotoxicity (0.101193 µM): -2.32 ± 0.23%; LDH release cytotoxicity (0.32 µM): -2.5 ± 0.28%; LDH release cytotoxicity (1.01193 µM): -1.78 ± 0.47%; LDH release cytotoxicity (3.2 µM): -1.64 ± 0.6%; LDH release cytotoxicity (10.1193 µM): -0.944 ± 0.11%; LDH release cytotoxicity (32 µM): 0.233 ± 0.59%
O=P(Oc1ccccc1)(Oc1ccccc1)Oc1ccccc1 [Triphenyl phosphate] | 0.948 ± 2 | -1.27 ± 1.3 | -1.47 ± 0.34 | -1.41 ± 0.43 | -0.353 ± 0.53 | 0.138 ± 0.49 | 2.03 ± 0.5 | 27.1 ± 4.3 | –
OC(c1ccc(Cl)cc1)(c1cncnc1)c1ccccc1Cl (configuration not stated) [Fenarimol] | – | -0.827 ± 2.8 | – | -2.32 ± 0.2 | -0.581 ± 1.4 | 0.969 ± 1.6 | 2.21 ± 1.1 | 15.4 ± 0.42 | LDH release cytotoxicity (0.031623 µM): -1.68 ± 0.087%; LDH release cytotoxicity (0.316228 µM): -0.805 ± 1.8%
Cc1cccc(Nc2cc(Cl)nc(SCC(=O)O)n2)c1C [Pirinixic acid] | -1.32 ± 0.91 | -1.59 ± 0.0083 | -0.978 ± 0.7 | -0.873 ± 0.35 | -1.38 ± 0.058 | -1.43 ± 0.6 | 0.274 ± 0.74 | 2.17 ± 0.81 | –
CCc1c(C(=O)NN2CCCCC2)nn(-c2ccc(Cl)cc2Cl)c1-c1ccc(Br)cc1 [Surinabant] | -0.47 ± 0.5 | -0.954 ± 0.83 | -1.13 ± 1.6 | -1.44 ± 0.058 | -0.402 ± 0.14 | 2.16 ± 0.28 | 15.8 ± 2.2 | 77.6 ± 2.6 | –
